The values below come from patent EP0381959B1, “Cyclohexaneacetamide derivatives” (F. HOFFMANN-LA ROCHE AG, priority 1989, dated 1990).

This experiment deals with male C57Bl/10 mice. The experiment is described as follows: Morris water maze task (latency to locate hidden platform). The class given is in vivo. As to conditions: Dose-Response (IP), intraperitoneal, dissolved in saline, 30 minutes prior to testing. An excerpt:
The test animals were male C57Bl/10 mice, weighing 17-21 grams at the time of testing. Mice were housed in groups of 10 and had ad lib access to food and water. Mice of this strain appear to be deficient in learning the water maze task and are therefore suitable for use in drug evaluation.[Symons, J.P., Davis, R.E., and Marriott J.G. Life Sciences, 1988, 42, 375-383.] The Morris water maze task requires an animal to attend to spatial cues in order to locate the position of a hidden platform submerged underwater. [Morris, B. G. Learning and Motivation , 1981, 12, 239-260, and Symons, J.P., Davis, R.E., and Marriott J.G. Life Sciences, 1988, 42, 375-383.] The maze consisted of a 60 cm x 60 cm x 60 cm transparent plexiglas chamber filled to a depth of 30 cm, leaving 30 cm of wall extended up from the water surface. The water was made opaque by the addition of powdered milk. The water temperature was maintained at 20 °C. Both distal cues (i.e., standard room objects) and proximal cues (that is, 20 cm x 22 cm unique black and white patterns pasted to the center of each of the four walls of the maze) were used. The submerged platform, 8 x 8 cm, 1 cm below the water's surface was positioned near one of the four corners of the maze. […] The time required for each animal to locate the platform on each of the four trials was recorded (latency). […]

In the case of `NC(=O)[C@@H]1CCCN1C(=O)[C@H](Cc1c[nH]cn1)NC(=O)[C@@H]1CCC(=O)N1` [TRH, pGlu-His-ProNH₂], the “Active Dose Range” value fell in the range of 0.1 to 0.3 mg/kg.
